The values that follow come from ChEMBL document CHEMBL5608161, “Identification of 4-(6-((2-methoxyphenyl)amino)pyrazin-2-yl)benzoic acids as CSNK2A inhibitors with antiviral activity and improved selectivity over PIM3” (Bioorg Med Chem Lett, 2024).

Molecules are shown by their SMILES. Active and inactive are the calls of the source. No cut-off for these calls is given here. Bounds are passed on as bounds.

Assay [1] relates to HEK293. The assay is described as follows: Inhibition of Nano Luc-fused CSNK2A (unknown origin) expressed in HEK293 cells using NanoGlo as substrate at 10 uM by NanoBRET In-cell target engagement assay. The settings on record: Homo sapiens. The format is cell-based.
Assay [2] is described as follows: cells. The settings on record: Homo sapiens, HEK293.
Description: Inhibition of Nano Luc-fused CSNK2A (unknown origin) expressed in HEK293 cells using NanoGlo as substrate by NanoBRET In-cell target engagement assay
In assay [3] the test system is Murine hepatitis virus. The assay is described as follows: microbe, parasite or virus in culture. The settings on record: Murine coronavirus, DB.
Description: Antiviral activity against MHV expressing nLuc infected in human DB cells assessed as inhibition of viral replication
The target of assay [4] is Death-associated protein kinase 3 (Homo sapiens) (UniProt O43293). The assay is described as follows: Binding affinity to DAPK3 (unknown origin) assessed as melting temperature by thermal shift assay.
The target in assay [5] is Serine/threonine-protein kinase pim-1 (Homo sapiens) (UniProt P11309). The assay is described as follows: Binding affinity to PIM1 (unknown origin) assessed as melting temperature by thermal shift assay.
Assay [6] addresses BMP-2-inducible protein kinase (Homo sapiens) (UniProt Q9NSY1). The assay is described as follows: Binding affinity to BIKE (unknown origin) assessed as melting temperature by thermal shift assay.
Assay [7] has as its target T1, Mitogen-activated protein kinase 15 (Homo sapiens) (UniProt Q8TD08).
T1 sequence (whole entry): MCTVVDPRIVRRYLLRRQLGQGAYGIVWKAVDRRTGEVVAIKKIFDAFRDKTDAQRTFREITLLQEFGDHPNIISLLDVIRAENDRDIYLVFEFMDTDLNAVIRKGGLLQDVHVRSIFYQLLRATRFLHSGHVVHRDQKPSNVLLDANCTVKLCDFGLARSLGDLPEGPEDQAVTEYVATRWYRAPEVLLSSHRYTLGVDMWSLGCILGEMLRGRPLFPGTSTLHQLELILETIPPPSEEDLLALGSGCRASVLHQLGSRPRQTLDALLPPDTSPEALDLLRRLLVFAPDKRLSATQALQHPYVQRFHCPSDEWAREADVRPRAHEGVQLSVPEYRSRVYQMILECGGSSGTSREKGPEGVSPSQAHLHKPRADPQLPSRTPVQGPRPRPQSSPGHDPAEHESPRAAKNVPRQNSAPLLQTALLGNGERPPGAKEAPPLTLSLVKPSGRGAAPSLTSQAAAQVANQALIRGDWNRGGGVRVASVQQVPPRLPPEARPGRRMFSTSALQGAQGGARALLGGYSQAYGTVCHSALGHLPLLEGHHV
Nature of the assay: Binding affinity to MAPK15 (unknown origin) assessed as melting temperature by thermal shift assay.

The target of assay [8] is T2, Dual specificity tyrosine-phosphorylation-regulated kinase 2 (Homo sapiens) (UniProt Q92630).
T2 sequence (whole entry): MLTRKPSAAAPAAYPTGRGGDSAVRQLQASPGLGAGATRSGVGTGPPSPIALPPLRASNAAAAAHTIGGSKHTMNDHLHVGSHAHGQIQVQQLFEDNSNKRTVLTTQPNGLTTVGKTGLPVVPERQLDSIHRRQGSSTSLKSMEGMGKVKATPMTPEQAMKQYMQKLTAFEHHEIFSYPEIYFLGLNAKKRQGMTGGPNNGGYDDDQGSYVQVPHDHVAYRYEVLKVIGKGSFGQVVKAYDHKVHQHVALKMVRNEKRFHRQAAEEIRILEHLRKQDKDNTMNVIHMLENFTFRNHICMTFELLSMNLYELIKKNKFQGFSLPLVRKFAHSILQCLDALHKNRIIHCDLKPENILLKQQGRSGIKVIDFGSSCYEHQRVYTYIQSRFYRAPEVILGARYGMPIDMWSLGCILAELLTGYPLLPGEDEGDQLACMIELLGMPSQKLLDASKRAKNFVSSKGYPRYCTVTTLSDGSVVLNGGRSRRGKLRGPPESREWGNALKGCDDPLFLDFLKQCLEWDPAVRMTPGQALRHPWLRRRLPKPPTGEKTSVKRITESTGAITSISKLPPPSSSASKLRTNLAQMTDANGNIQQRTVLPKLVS
The assay is described as follows: Binding affinity to DYRK2 (unknown origin) assessed as melting temperature by thermal shift assay.

Death-associated protein kinase 3 (Homo sapiens), sequence (O43293 whole entry, looked up): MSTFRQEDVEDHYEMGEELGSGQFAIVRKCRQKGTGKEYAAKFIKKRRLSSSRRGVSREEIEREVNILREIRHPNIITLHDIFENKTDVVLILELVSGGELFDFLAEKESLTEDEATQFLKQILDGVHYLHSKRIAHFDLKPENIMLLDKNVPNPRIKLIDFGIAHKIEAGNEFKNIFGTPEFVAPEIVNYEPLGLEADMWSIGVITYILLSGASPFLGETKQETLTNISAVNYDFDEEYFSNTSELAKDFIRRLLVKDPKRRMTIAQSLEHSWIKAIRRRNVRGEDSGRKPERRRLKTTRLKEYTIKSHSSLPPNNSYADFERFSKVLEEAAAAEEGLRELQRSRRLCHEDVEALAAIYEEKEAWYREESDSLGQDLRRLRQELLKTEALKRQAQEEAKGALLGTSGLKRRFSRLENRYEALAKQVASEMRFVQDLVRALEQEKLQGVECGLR
BMP-2-inducible protein kinase (Homo sapiens), sequence (Q9NSY1 whole entry, looked up): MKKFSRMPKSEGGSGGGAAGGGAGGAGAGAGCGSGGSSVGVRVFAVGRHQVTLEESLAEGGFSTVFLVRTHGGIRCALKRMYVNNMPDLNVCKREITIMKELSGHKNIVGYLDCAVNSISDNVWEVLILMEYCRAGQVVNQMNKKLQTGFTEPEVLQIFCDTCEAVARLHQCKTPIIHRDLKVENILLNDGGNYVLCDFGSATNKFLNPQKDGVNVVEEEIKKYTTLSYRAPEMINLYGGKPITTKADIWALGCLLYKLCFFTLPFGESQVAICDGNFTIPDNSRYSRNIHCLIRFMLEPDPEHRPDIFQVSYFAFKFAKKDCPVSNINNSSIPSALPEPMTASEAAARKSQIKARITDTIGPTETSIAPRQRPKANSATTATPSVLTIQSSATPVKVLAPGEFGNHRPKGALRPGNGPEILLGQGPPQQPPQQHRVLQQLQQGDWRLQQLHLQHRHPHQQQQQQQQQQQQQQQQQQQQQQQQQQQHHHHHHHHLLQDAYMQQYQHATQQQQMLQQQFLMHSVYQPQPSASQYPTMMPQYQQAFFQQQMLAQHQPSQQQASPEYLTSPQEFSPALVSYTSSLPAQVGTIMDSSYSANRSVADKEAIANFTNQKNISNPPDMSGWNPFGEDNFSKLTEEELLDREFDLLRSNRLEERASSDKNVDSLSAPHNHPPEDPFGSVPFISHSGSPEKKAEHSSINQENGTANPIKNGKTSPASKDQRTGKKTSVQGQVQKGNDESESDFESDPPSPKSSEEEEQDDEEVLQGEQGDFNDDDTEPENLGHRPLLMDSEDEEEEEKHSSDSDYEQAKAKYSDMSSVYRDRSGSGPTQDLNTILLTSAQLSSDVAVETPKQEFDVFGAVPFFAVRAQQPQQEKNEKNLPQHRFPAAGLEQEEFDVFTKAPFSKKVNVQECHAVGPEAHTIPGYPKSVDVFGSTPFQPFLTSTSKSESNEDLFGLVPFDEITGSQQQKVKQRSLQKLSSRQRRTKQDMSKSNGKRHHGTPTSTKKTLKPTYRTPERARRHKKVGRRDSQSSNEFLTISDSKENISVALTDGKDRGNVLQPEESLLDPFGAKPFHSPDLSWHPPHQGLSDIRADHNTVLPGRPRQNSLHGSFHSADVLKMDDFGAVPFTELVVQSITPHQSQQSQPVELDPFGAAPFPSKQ
Serine/threonine-protein kinase pim-1 (Homo sapiens), sequence (P11309 whole entry, looked up): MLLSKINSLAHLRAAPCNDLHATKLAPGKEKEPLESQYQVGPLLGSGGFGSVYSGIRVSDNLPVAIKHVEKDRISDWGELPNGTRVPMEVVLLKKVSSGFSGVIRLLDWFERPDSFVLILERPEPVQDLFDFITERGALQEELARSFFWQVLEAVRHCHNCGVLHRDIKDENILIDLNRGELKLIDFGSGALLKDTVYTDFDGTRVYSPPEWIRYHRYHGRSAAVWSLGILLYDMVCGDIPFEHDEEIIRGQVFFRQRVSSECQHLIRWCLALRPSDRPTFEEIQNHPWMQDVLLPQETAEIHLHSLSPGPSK

Regarding `CC(C)Nc1ccc2cnn(-c3cncc(-c4ccc(S(N)(=O)=O)cc4)n3)c2c1`, the inhibition entry in assay [1] was “inactive”.
As usually defined, the IC50 is the concentration that gives 50% inhibition. As to `CC(C)Nc1ccc2cnn(-c3cncc(-c4ccc(C(=O)O)c(Cl)c4)n3)c2c1`, in assay [2], the IC50 was 260 nM.
Molecule `CC(C)C(=O)OC[C@H]1O[C@@H](n2cc/c(=N\O)[nH]c2=O)[C@H](O)[C@@H]1O` [MOLNUPIRAVIR] registered an IC50 in assay [3] of 1400 nM.
Regarding `CC(C)Nc1ccc2cnn(-c3cncc(-c4ccc(C(N)=O)cc4)n3)c2c1`, the inhibition result in assay [1] is “inactive”.
One may read the Tm as the temperature at which the thermal transition is half complete. For the molecule `COc1ccc(OC(C)C)cc1Nc1cncc(-c2ccc(C(=O)O)cc2)n1`, the Tm in assay [4], in assay [5], in assay [6], in assay [7] and in assay [8] was > 9 °C each time.
Regarding `O=C(O)c1ccc(-c2cncc(-n3ncc4ccc(NCCN5CCOCC5)cc43)n2)cc1`, the midpoint of inhibition in assay [2], the IC50, lay at 2600 nM.
`CC(=O)Nc1ccc2cnn(-c3cncc(-c4ccc(C(=O)O)cc4)n3)c2c1`: 4020 nM corresponded to half-maximal inhibition in assay [2] (IC50).
Regarding `COc1cc(-c2cncc(-n3ncc4ccc(NC(C)C)cc43)n2)ccc1C(=O)O`, the inhibition result in assay [1] was “inactive”.
`O=C(O)c1ccc(-c2cncc(-n3ncc4ccc(NC5CCCC5)cc43)n2)cc1`: the IC50 in assay [2] was found to be 2200 nM.
